Assay results reported in patent US20120128670A1, “mTOR INHIBITOR AND ANGIOGENESIS INHIBITOR COMBINATION THERAPY” (OSI PHARMACEUTICALS, LLC, priority 2009, published 2012).
Like-named read-outs stand apart in the source and are kept apart here.

Columns and labels:
[1] = tested on: DU145 prostate carcinoma xenografts; experiment: Study No. 2: tumor growth inhibition in DU145 prostate carcinoma xenografts, extended dosing for 28 days; assay type: in vivo
Experimental: (§1) With respect to study Nos. 1 and 2, male athymic nude nu/nu mice (6-8 wks, 25-32 g, Harlan) were allowed to acclimate for a minimum of one week prior to initiation of the study. To evaluate tumor growth inhibition, DU145 tumor fragments were implanted s.c. in the right flank of nude mice. Tumors were established to 200±50 mm^3 in size before randomization into treatment groups of 8 mice each.
(§2) Body weights were determined twice weekly along with tumor volume (V=[length×(width)]/2) measurements using Vernier calipers. Tumor growth inhibition was determined at different time points by the following formula:
(§3) where Tt=median tumor volume of treated at time t; T0=median tumor volume of treated at time 0; Ct=median tumor volume of control at time t; and C0=median tumor volume of control at time 0. The average TGI over the dosing period was then calculated and reported.
(§4) Tumor regressions were determined and calculated as follows using the formula: % Regression=100(T0−Ti)/T0; where T0 is the mean tumor volume for treated group at the initiation of treatment and Ti is the mean tumor volume for that group at time x.

[2] = tested on: DU145 prostate carcinoma xenografts; conditions: for % Reg. / Morbidity (Mortality) / Avg. TGI: DU145 xenografts
Experimental: as §1
(§5) All of the Tumor Growth Inhibition (TGI) studies were performed using 20% Trappsol as the vehicle with once-daily oral administration of OSI-027 for 14 or 28 consecutive days. Body weights were determined twice weekly along with tumor volume (V=[length×(width)]/2) measurements using Vernier calipers. Tumor growth inhibition was determined at different time points by the following formula:
as §3, §4

[3] = tested on: H292 lung carcinoma xenografts; experiment: Study No. 3: tumor growth inhibition in H292 lung carcinoma xenografts; conditions: 21 days, single agent
Text: (§6) Regarding study Nos. 3 and 4, female athymic nude nu/nu CD-1 mice (6-8 wks, 20-29 g, Charles River Laboratories, Wilmington, Mass., USA) were allowed to acclimate for a minimum of one week prior to initiation of the study. To evaluate tumor growth inhibition, cells were harvested from cell culture flasks during exponential cell growth, washed twice with sterile PBS, counted and resuspended in PBS to a suitable concentration before s.c. implantation on the right flank of nu/nu CD-1 mice. Tumors were established to 200±50 mm^3 in size before randomization into treatment groups of 8 mice each.
as §5, §3, §4

[4] = tested on: SKOV3 ovarian carcinoma xenografts; experiment: Study No. 5: tumor growth inhibition in SKOV3 ovarian carcinoma xenografts; conditions: single agent
Experimental: With respect to study No. 5, female athymic nude nu/nu mice (11-12 wks, 20-27 g, Harlan) were allowed to acclimate for a minimum of one week prior to initiation of the study. To evaluate tumor growth inhibition, SKOV3 tumor fragments were implanted s.c. in the right flank of nude mice. Tumors were established to mean tumor volume per treatment group of 84.6 mm^3-85.3 mm^3 of 8 mice each.
as §2, §3, §4

[5] = tested on: OVCAR-5 ovarian carcinoma xenografts; experiment: Study No. 4: tumor growth inhibition in OVCAR-5 ovarian carcinoma xenografts; conditions: OVCAR-5 xenografts, 14 days, single agent
Text: as §6, §5, §3, §4

[6] = OSI-027 50 mg/kg qd oral, 28 days, single agent
[7] = OSI-027 65 mg/kg qd oral, 28 days, single agent
[8] = OSI-027 50 mg/kg qd oral, 14 days, single agent
[9] = OSI-027 50 mg/kg qd oral, 50 mg/kg
[10] = OSI-027 50 mg/kg qd oral, 14 days
[11] = OSI-027 50 mg/kg qd oral, 14 days, 50 mg/kg
[12] = Sutent 40 mg/kg qd, listed as Sunitinib
[13] = Avastin 4 mg/kg q4d×8, single agent
[14] = Avastin 4 mg/kg q4d×4, single agent
[15] = Avastin 4 mg/kg q4d (table; text 5 mg/kg q4d×4)
[16] = Avastin 4 mg/kg q4d (table; text 5 mg/kg q4d×4), listed as Bevacizumab

COc1cccc2cc(-c3nc([C@H]4CC[C@H](C(=O)O)CC4)n4ncnc(N)c34)[nH]c12 [OSI-027, (1R,4R)-4-(4-amino-5-(7-methoxy-1H-indol-2-yl)imidazo[1,5-f][1,2,4]triazin-7-yl)cyclohexanecarboxylic acid]
% Reg. [1, 6]: 0% | BWL [1, 6]: 14% | Morbidity (Mortality) [1, 6]: 0/8 | Avg. TGI ([1]; OSI-027 50 mg/kg qd oral, 28 days, single agent, 50 mg/kg): 40% | % Reg. [1, 7]: 0% | BWL [1, 7]: 17% | Morbidity (Mortality) [1, 7]: 0/8 | Avg. TGI ([1]; OSI-027 65 mg/kg qd oral, 28 days, single agent, 65 mg/kg): 58% | % Reg. [2, 8]: 0% | Morbidity (Mortality) [2, 8]: 0/8 | Avg. TGI ([2]; OSI-027 50 mg/kg qd oral, 14 days, single agent, 50 mg/kg): 21% | BWL ([2]; mouse, in vivo, po, 50 mg/kg): 6% | BWL ([3]; OSI-027 50 mg/kg qd oral): 0% | Morbidity (Mortality) ([3]; OSI-027 50 mg/kg qd oral): 0/8 | % Reg. [3, 9]: 8% | Avg. TGI [3, 9]: 83% | BWL [4, 10]: 2% | Morbidity (Mortality) [4, 10]: 0/8 | % Reg. [4, 11]: 4% | Avg. TGI [4, 11]: 86% | BWL ([5]; OSI-027 50 mg/kg qd oral): 0% | Morbidity (Mortality) ([5]; OSI-027 50 mg/kg qd oral): 0/8 | % Reg. [5, 9]: 6% | Avg. TGI [5, 9]: 78%

CCN(CC)CCNC(=O)c1c(C)[nH]c(/C=C2\C(=O)Nc3ccc(F)cc32)c1C [Sutent, sunitinib, reference compound]
% Reg. ([3]; Sutent 40 mg/kg qd): 0% | Avg. TGI ([3]; Sutent 40 mg/kg qd): 55% | Morbidity (Mortality) ([3]; Sutent 40 mg/kg qd): 0/8 | Avg. TGI [3, 12]: 55% | % Reg. ([5]; Sutent 40 mg/kg qd): 0% | Avg. TGI ([5]; Sutent 40 mg/kg qd): 71% | Morbidity (Mortality) ([5]; Sutent 40 mg/kg qd): 0/8 | Avg. TGI [5, 12]: 71%

bevacizumab [Avastin, reference compound]
% Reg. [1, 13]: 0% | Avg. TGI [1, 13]: 32% | Morbidity (Mortality) [1, 13]: 0/8 | Avg. TGI ([1]; Avastin 4 mg/kg q4d×8, single agent, listed as Bevacizumab): 32% | % Reg. [2, 14]: 0% | Avg. TGI [2, 14]: 16% | Morbidity (Mortality) [2, 14]: 0/8 | Avg. TGI ([2]; Avastin 4 mg/kg q4d×4, single agent, listed as Bevacizumab): 16% | % Reg. [4, 15]: 0% | Avg. TGI [4, 15]: 67% | Morbidity (Mortality) [4, 15]: 0/8 | % Reg. [4, 16]: 0% | Avg. TGI [4, 16]: 67%
